Experimental findings from US8058243B2, “Method for treating a brain cancer with ifenprodil” (HSC Research and Development Limited Partnership, priority 2006, dated 2011) are described below.

This assay relates to murine neural precursor cells (neurosphere cultures). Briefly: HTS of LOPAC library against secondary neurosphere cultures, MTT proliferation assay at 3 μM, day 7 (z score, P value). The assay is classed as cell-based, mouse. In general terms: Formazan colour is commonly taken as a measure of viable cells.
The mark [1] stands for this setting: LOPAC screen, neurosphere MTT proliferation, 3 μM, day 7.
The mark [2] stands for this setting: yes/no: significantly inhibited neurosphere proliferation (P<0.01) in primary screen.
Setting [3] is: LOPAC library screen at 3 μM, secondary neurosphere cultures, MTT.
Setting [4] is: LOPAC library screen, 3 μM, MTT, secondary neurosphere cultures, day 7.
Where [5] appears, read: LOPAC primary screen, neurosphere MTT proliferation, 3 μM, day 7.
The mark [6] stands for this setting: yes = significantly inhibited neurosphere proliferation (P<0.01) in the primary screen.
[7] abbreviates: LOPAC library screen, 3 μM, MTT, neurosphere cultures.
[8] abbreviates: yes/no: significantly inhibited neurosphere proliferation (P<0.01) in the primary screen.
Setting [9] is: primary LOPAC screen, 3 μM, MTT, neurosphere proliferation.
The mark [10] stands for this setting: yes/no: significantly inhibited neurosphere proliferation in the primary screen.
[11] abbreviates: LOPAC library screen at 3 μM, MTT, secondary neurosphere cultures, screened in singlets.
Setting [12] is: yes/no: significantly inhibited neurosphere proliferation in primary screen.

Structures can show the parent of a compound that is named as a salt. Where two headings read alike, the source gives them in different places.

On to `CN1C(=O)CCS(=O)(=O)C1c1ccc(Cl)cc1` (centres unmarked) [Chlormezanone], for which the “Z Score” value is given as −0.9465. For the same molecule, the Z score under setting [1] is listed as −0.947. The Activity entry under setting [2] is “no”.
For `CNC(=O)[C@H]1O[C@@H](n2cnc3c(NCc4cccc(I)c4)nc(Cl)nc32)[C@H](O)[C@@H]1O` [Chloro-IB-MECA], the “Z Score” value under setting [3] is −0.8471. Further, the Z score under setting [1] was −0.847. Under setting [2], the Activity entry is “no”.
Consider `NS(=O)(=O)c1cc2c(cc1Cl)N=CNS2(=O)=O` [Chlorothiazide], for which the “Z Score” value under setting [4] was −3.165. For the same molecule, the Z score under setting [5] is −3.165. Also, the Activity entry under setting [6] is “yes”.
`CN(C)CCCN1c2ccccc2Sc2ccc(Cl)cc21` [Chlorpromazine hydrochloride]: the “Z Score” value under setting [7] was determined as 0.7506. The Z score under setting [5] was found to be 0.751. Moreover, the Activity entry under setting [8] was “no”.
`CCCNC(=O)NS(=O)(=O)c1ccc(Cl)cc1` [Chlorpropamide]: the “Z Score” value under setting [3] was −0.1901. Under setting [9], the Z score is listed as −0.190. Moreover, the Activity result under setting [10] is listed as “no”.
As for `CN(C)CC/C=C1/c2ccccc2Sc2ccc(Cl)cc21` [Chlorprothixene hydrochloride], for the setting “168 h, 3 µM”, the “Z Score” value is reported as −5.008 and the Z score was −5.008. The Activity entry under setting [8] is “yes”.
As to `C[N+](C)(C)CCO.[Br-]` [Choline bromide], the Activity result is on record as “no”, the “Z Score” value is −0.73 and the Z score is listed as −0.730.
Turning to `CN(C(=O)CCCOc1ccc2[nH]c(=O)ccc2c1)C1CCCCC1` [Cilostamide], the “Z Score” value under setting [7] was determined as 0.1756. Under setting [1], this molecule had a Z score of 0.176. Moreover, the Activity entry under setting [2] is given as “no”.
Take `O=C1CCc2cc(OCCCCc3nnnn3C3CCCCC3)ccc2N1` [Cilostazol]: the “Z Score” value under setting [7] stood at 0.8219. This molecule also yielded a Z score under setting [1] of 0.822. Also, the Activity result under setting [2] is reported as “no”.
As to `CN/C(=N/CCSCc1nc[nH]c1C)NC#N` [Cimetidine], under setting [11], the “Z Score” value came out at 1.665. The Z score under setting [1] was 1.665. Further, under setting [2], the Activity result is recorded as “no”.
With `C(=C\c1ccccc1)/CN1CCN(C(c2ccccc2)c2ccccc2)CC1` [Cinnarizine], under setting [4], the “Z Score” value is on record as −1.375. Under setting [1], the Z score is −1.375.
Regarding `CCn1nc(C(=O)O)c(=O)c2cc3c(cc21)OCO3` [Cinoxacin], under setting [3], the “Z Score” value is recorded as −1.095. The Z score under setting [1] is −1.095. In addition, the Activity entry under setting [2] was “no”.
For `CC(C)(Oc1ccc(C2CC2(Cl)Cl)cc1)C(=O)O` (centres unmarked) [Ciprofibrate], under setting [4], the “Z Score” value was −1.326. In addition, under setting [1], the Z score is listed as −1.326. Moreover, the Activity entry under setting [2] is “no”.
Regarding `c1ccc(C2CC2)c(OCC2=NCCN2)c1` [Cirazoline hydrochloride], the “Z Score” value under setting [7] was determined as 0.4239. The same molecule registered a Z score under setting [1] of 0.424. The Activity result under setting [2] is “no”.
For the molecule `N.N.[Cl][Pt][Cl]` [Cisplatin], the “Z Score” value under setting [11] is listed as 1.523. The Z score under setting [5] came to 1.523. Further, the Activity entry under setting [12] is “no”.
With `CN(C)CCCC1(c2ccc(F)cc2)OCc2cc(C#N)ccc21` (centres unmarked) [Citalopram hydrobromide], under setting [4], the “Z Score” value is recorded as −1.858. The Z score under setting [1] is −1.858. Moreover, the Activity result under setting [2] was “no”.
`C[N+](C)(C)CCOP(=O)([O-])OP(=O)([O-])OC[C@H]1O[C@@H](n2ccc(N)nc2=O)[C@H](O)[C@@H]1O.[Na+]` [Citicoline sodium]: the “Z Score” value under setting [3] is on record as −0.1331. For the same molecule, under setting [1], the Z score is −0.133. The Activity entry under setting [2] is on record as “no”.
On to `CN1CCC[C@@H]1CCO[C@](C)(c1ccccc1)c1ccc(Cl)cc1` [Clemastine fumarate], for which, for the setting “168 h, 3 µM”, the “Z Score” value is −2.023 and the Z score is reported as −2.023.
With `Clc1ccc(Cn2c(CN3CCCC3)nc3ccccc32)cc1` [Clemizole hydrochloride], under setting [11], the “Z Score” value is on record as 2.788. This molecule also displayed a Z score under setting [1] of 2.788. Further, the Activity result under setting [2] is recorded as “no”.
Consider `O=P(O)(O)C(Cl)(Cl)P(=O)(O)O` [Clodronic acid], for which the “Z Score” value under setting [3] is listed as −0.1842. Also, the Z score under setting [1] is reported as −0.184. Further, the Activity entry under setting [2] is listed as “no”.
As for `CCOC(=O)C(C)(C)Oc1ccc(Cl)cc1` [Clofibrate], the “Z Score” value under setting [4] is reported as −1.738. In addition, under setting [1], the Z score is −1.738.
`CN(C)CCCN1c2ccccc2CCc2ccc(Cl)cc21` [Clomipramine hydrochloride]: the Activity entry is “no”. The “Z Score” value under setting [3] is −0.8439. Also, the Z score under setting [5] is −0.844.
In the case of `Clc1cccc(Cl)c1N=C1NCCN1` [Clonidine hydrochloride], the “Z Score” value under setting [7] is reported as 1.041. Besides, under setting [1], the Z score is on record as 1.041. For the same molecule, the Activity entry under setting [2] is given as “no”.
On to `C#CCN(C)CCCOc1ccc(Cl)cc1Cl` [Clorgyline hydrochloride], for which the Activity result is on record as “no”. The “Z Score” value under setting [11] was 1.52. Under setting [5], the Z score amounted to 1.520.
In the case of `Clc1ccccc1C(c1ccccc1)(c1ccccc1)n1ccnc1` [Clotrimazole], the “Z Score” value under setting [3] is recorded as −0.7158. Also, the Z score under setting [1] is −0.716. Besides, under setting [2], the Activity entry is reported as “no”.
Consider `CN1CCN(C2=Nc3cc(Cl)ccc3Nc3ccccc32)CC1` [Clozapine], for which, where the note is “168 h, 3 µM”, the “Z Score” value was 0.5473 and the Z score is recorded as 0.547.
Regarding `COc1cc2c(c(OC)c1OC)-c1ccc(OC)c(=O)cc1[C@@H](NC(C)=O)CC2` [Colchicine], the Activity result is given as “yes”, the “Z Score” value is recorded as −10.75 and the Z score is recorded as −10.753.
For `C[C@]12CCC(=O)C=C1CC[C@@H]1[C@@H]2CC[C@@]2(C)[C@H]1CC[C@]2(O)C(=O)CO` [Cortexolone], under setting [3], the “Z Score” value is on record as −0.6087. Further, the Z score under setting [5] is reported as −0.609. The Activity result under setting [12] was “no”.
Consider `C[C@]12C[C@H](O)[C@H]3[C@@H](CCC4=CC(=O)CC[C@@]43C)[C@@H]1CC[C@@H]2C(=O)CO` [Corticosterone], for which the Activity result was “no”. Besides, the “Z Score” value under setting [4] is −2.285. The Z score under setting [9] was −2.285.
Take `CC(=O)OCC(=O)[C@@]1(O)CC[C@H]2[C@@H]3CCC4=CC(=O)CC[C@]4(C)[C@H]3C(=O)C[C@@]21C` [Cortisone 21-acetate]: the “Z Score” value under setting [4] is given as −2.218. Moreover, the Z score under setting [1] is given as −2.218. Also, under setting [2], the Activity result is “no”.
For `C[C@]12CCC(=O)C=C1CC[C@@H]1[C@@H]2C(=O)C[C@@]2(C)[C@H]1CC[C@]2(O)C(=O)CO` [Cortisone], the “Z Score” value under setting [3] is given as −0.5807. Also, the Z score under setting [9] is listed as −0.581. The Activity result under setting [10] is given as “no”.
Regarding `CN(C)CCC=C1c2ccccc2C=Cc2ccccc21` [Cyclobenzaprine hydrochloride], the “Z Score” value under setting [7] came to 0.07186. Besides, the Z score under setting [1] is 0.072. Further, the Activity entry under setting [2] is recorded as “no”.
As for `O=P1(N(CCCl)CCCl)NCCCO1` (centres unmarked) [Cyclophosphamide monohydrate], the Activity entry is listed as “no”, the “Z Score” value is −0.9758 and the Z score is −0.976.
`NS(=O)(=O)c1cc2c(cc1Cl)NC(C1CC3C=CC1C3)NS2(=O)=O` (centres unmarked) [Cyclothiazide]: under setting [3], the “Z Score” value was −0.907. Moreover, the Z score under setting [1] is recorded as −0.907. The Activity entry under setting [2] is “no”.
Turning to `CN1CCC(=C2c3ccccc3C=Cc3ccccc32)CC1` [Cyproheptadine hydrochloride], under “168 h, 3 µM”, the “Z Score” value was determined as 1.232 and the Z score is 1.232. Besides, the Activity result under setting [2] was “no”.
As for `CC(=O)O[C@]1(C(C)=O)CC[C@H]2[C@@H]3C=C(Cl)C4=CC(=O)[C@@H]5C[C@@H]5[C@]4(C)[C@H]3CC[C@@]21C` [Cyproterone acetate], under setting [4], the “Z Score” value is given as −1.803. For the same molecule, the Z score under setting [1] is on record as −1.803. Further, the Activity result under setting [2] is listed as “no”.
In the case of `Cl.Cl.NCCSSCCN` [Cystamine dihydrochloride], the “Z Score” value stood at 2.23. Under setting [1], the Z score is listed as 2.230. Besides, the Activity entry under setting [2] was “no”.
For the molecule `NCCS` [Cysteamine hydrochloride], under setting [3], the “Z Score” value is given as −0.5989. Besides, the Z score under setting [5] is reported as −0.599. The Activity result under setting [6] is “no”.
Take `N[C@H](CCCCCP(=O)(O)O)C(=O)O` [D(−)-2-Amino-7-phosphonoheptanoic acid]: the Activity entry was “no”, the “Z Score” value came out at 0.9855 and the Z score stood at 0.985.
As to `S=C([S-])OC1CC2CC1C1CCCC21.[K+]` [D-609 potassium], the “Z Score” value under setting [3] was −0.8964. Also, the Z score under setting [9] is reported as −0.896. In addition, the Activity entry under setting [10] is “no”.
On to `N[C@@H]1CONC1=O` [D-Cycloserine], for which the “Z Score” value under setting [4] was −1.24. The Z score under setting [1] is −1.240. For the same molecule, the Activity result under setting [2] is recorded as “no”.
Consider `N[C@H](CO)C(=O)O` [D-Serine], for which the “Z Score” value under setting [3] was −0.1429. For the same molecule, the Z score under setting [5] is reported as −0.143. For the same molecule, the Activity entry under setting [12] is listed as “no”.
For `OC[C@H]1O[C@@H](n2cnc3ccccc32)[C@H](O)[C@@H]1O` [D-ribofuranosylbenzimidazole], the “Z Score” value is on record as −2.144. Besides, under setting [1], the Z score is reported as −2.144. The Activity result under setting [2] is reported as “no”.
Take `Clc1ccc(N2CC3CCC(C2)N3)nn1` [DBO-83]: the “Z Score” value is −1.279. The Z score under setting [1] is recorded as −1.279. In addition, the Activity entry under setting [2] was “no”.
For `CCn1c(=O)[nH]c2cc(Cl)c(Cl)cc21` [DCEBIO], the “Z Score” value was found to be 0.8099. Moreover, the Z score under setting [1] stood at 0.810. For the same molecule, the Activity result under setting [2] is “no”.
